From patent publication US10077261B2, “Imidazolin-5-one derivative useful as FASN inhibitors for the treatment of cancer” (Janssen Pharmaceutica NV, priority 2012, dated 2018) come the findings set out here.

Test [1] deals with A2780 ovarian cells. Kind of test: A2780 ovarian cell proliferation assay in lipid reduced medium, with palmitate (MTT). The class given is cell-based. The note with it: Homo sapiens, A2780, 96 h; read-out: pIC50 A2780 Ovarian Cell, With Palmitate (converted). The method, boiled down: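 Seeded cells were switched next day to lipid-reduced serum, exposed to compound and 25 μM palmitate complexed with fatty-acid-free BSA, and incubated 96 h. Proliferation was then determined by MTT absorbance at 544 nm, with a best-fit curve of signal against concentration.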

For test [2], the system named is A2780 ovarian cells. Kind of test: A2780 ovarian cell proliferation assay in lipid reduced medium, without palmitate (MTT). The class given is cell-based. To be noted: Homo sapiens, A2780, 96 h; read-out: pIC50 A2780 Ovarian Cell, Without Palmitate (converted).
Test [3] addresses T1, hFASN enzyme (full length) (Homo sapiens, UniProt P49327).
T1 construct: 10 μL hFASN enzyme (full length, 300 ng, purified in house); made in house
Kind of test: Fatty Acid Synthase (FASN) inhibition scintillation proximity assay. The note with it: for inhibition at 10 µM: read-out: Human FASN % inhibition @ 10 μM, 10 μM test compound; for IC50: read-out: Human FASN pIC50 (converted). The class given is biochemical. The method, boiled down:
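Full-length in-house purified enzyme (300 ng) was tested in 100 mM KH2PO4 pH 7.5, 1 mM DTT with ³H-acetyl-CoA and malonyl-CoA as substrates; compounds ranged 0.01–30 μM. Reactions were stopped with streptavidin imaging beads, read by LEADseeker at 610 nm, and fitted to a 4-parameter logistic curve.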
A general note: In a scintillation proximity assay essentially only radioactivity close to the scintillant gives light.

Some results are limits rather than exact numbers.

T1 sequence (P49327 whole entry): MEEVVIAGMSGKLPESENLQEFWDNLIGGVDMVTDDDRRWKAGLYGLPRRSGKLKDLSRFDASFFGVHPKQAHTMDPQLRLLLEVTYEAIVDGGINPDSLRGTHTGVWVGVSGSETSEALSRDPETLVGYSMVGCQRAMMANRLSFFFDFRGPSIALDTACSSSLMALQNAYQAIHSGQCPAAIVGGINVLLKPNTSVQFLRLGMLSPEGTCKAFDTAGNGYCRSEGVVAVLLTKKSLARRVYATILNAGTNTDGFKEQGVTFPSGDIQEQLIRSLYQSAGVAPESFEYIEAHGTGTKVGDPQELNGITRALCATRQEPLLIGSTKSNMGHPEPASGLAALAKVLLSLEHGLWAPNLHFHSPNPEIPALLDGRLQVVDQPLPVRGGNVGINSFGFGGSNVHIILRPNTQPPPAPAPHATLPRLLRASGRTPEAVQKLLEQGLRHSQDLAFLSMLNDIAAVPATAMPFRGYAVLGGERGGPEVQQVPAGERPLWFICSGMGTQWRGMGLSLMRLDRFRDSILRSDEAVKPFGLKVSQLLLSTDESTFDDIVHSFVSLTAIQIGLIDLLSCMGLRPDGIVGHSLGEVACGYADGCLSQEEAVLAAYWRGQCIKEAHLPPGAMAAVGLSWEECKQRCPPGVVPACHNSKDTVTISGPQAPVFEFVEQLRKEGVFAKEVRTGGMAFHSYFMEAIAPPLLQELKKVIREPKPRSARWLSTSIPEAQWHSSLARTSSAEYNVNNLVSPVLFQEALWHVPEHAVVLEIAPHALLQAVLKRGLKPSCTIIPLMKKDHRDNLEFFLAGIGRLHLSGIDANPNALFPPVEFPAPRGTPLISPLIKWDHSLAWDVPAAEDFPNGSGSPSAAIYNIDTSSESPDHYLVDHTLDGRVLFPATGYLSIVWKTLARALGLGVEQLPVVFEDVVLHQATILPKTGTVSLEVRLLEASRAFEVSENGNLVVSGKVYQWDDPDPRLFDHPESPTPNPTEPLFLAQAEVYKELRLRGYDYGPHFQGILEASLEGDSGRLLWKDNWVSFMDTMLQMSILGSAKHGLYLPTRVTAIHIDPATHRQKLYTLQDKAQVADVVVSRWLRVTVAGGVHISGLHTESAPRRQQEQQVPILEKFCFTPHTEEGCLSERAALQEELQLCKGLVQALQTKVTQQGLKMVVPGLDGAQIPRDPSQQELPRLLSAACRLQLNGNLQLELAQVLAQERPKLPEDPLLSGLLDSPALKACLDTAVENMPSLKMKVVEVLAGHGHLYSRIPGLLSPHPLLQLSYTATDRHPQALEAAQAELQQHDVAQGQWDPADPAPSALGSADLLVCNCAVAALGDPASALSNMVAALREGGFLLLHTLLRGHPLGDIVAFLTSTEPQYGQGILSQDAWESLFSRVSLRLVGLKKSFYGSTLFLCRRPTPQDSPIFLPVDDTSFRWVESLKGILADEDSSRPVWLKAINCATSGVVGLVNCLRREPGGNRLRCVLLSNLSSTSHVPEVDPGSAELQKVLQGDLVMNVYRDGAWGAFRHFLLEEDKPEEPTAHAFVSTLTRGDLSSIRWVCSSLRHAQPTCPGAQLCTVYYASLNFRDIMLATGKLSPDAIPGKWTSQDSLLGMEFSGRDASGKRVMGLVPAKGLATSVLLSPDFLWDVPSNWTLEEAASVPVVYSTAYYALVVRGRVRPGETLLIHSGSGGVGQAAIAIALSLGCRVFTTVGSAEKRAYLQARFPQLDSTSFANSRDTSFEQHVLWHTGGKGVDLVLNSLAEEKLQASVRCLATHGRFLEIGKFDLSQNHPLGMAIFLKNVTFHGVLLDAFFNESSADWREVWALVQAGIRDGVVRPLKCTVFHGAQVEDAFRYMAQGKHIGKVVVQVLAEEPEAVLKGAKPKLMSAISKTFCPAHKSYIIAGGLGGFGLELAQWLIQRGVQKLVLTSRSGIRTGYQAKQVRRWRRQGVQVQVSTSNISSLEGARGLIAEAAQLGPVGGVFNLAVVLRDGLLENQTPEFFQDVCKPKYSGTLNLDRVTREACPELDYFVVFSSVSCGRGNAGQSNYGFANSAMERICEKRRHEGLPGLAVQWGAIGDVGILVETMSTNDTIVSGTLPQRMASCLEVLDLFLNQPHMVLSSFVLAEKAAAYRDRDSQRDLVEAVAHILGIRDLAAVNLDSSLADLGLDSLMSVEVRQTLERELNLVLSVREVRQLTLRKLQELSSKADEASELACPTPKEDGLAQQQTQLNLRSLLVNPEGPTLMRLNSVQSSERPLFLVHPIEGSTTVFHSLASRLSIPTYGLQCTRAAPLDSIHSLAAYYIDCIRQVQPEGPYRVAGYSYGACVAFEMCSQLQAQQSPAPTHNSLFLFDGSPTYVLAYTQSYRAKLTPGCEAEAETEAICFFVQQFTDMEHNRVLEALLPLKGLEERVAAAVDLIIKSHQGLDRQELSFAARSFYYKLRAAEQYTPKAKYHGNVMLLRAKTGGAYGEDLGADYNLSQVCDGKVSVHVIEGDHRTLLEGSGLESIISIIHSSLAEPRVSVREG

Usually inhibition stands for the share of the control response that was lost under treatment. In the case of `O=C(C1CC1)N1CC(CN2C(=O)C3(CC3)N=C2c2ccc(-c3cc4cnn(CCO)c4cc3F)cc2)C1` [compound 552, 6-{[1-(Cyclopropylcarbonyl)azetidin-3-yl]methyl}-5-{4-[6-fluoro-1-(2-hydroxyethyl)-1H-indazol-5-yl]phenyl}-4,6-diazaspiro[2.4]hep-t-4-en-7-one], the IC50 in the test on A2780 ovarian cells [1] is > 10000 nM; with A2780 ovarian cells [2], 1700 nM; in test [3] it was 4900 nM. In addition, the inhibition at 10 µM in test [3] stood at 66%.
For the molecule `O=C(C1CC1)N1CC(CN2C(=O)C3(CC3)N=C2c2ccc(-c3cc4cn(CCO)nc4cc3F)cc2)C1` [compound 553, 6-{[1-(Cyclopropylcarbonyl)azetidin-3-yl]methyl}-5-{4-[6-fluoro-2-(2-hydroxyethyl)-2H-indazol-5-yl]phenyl}-4,6-diazaspiro[2.4]hept-4-en-7-one], the figures for the IC50 (in the test with A2780 ovarian cells [1]; in the test on A2780 ovarian cells [2]; in test [3]) were > 10000 nM, 2750 nM and 1350 nM, respectively. In addition, the inhibition at 10 µM in test [3] amounted to 85%.
Turning to `Cc1cc2ccc(-c3ccc(C4=NC5(CC5)C(=O)N4CC4CN(C(=O)C5CC5)C4)cc3)cc2nc1Cl` [compound 555, 5-[4-(2-Chloro-3-methylquinolin-7-yl)phenyl]-6-{[1-(cyclopropylcarbonyl)azetidin-3-yl]methyl}-4,6-diazaspiro[2.4]hept-4-en-7-one], the IC50 in the test on A2780 ovarian cells [1] is > 10000 nM; with A2780 ovarian cells [2], ~5130 nM; in test [3], 1860 nM. For the same molecule, the inhibition at 10 µM in test [3] amounted to 75%.
For the molecule `O=C(C1CC1)N1CC(CN2C(=O)C3(CC3)N=C2c2ccc(-c3ccc4c(cnn4CCO)c3)cc2)C1` [compound 556, 6-{[1-(Cyclopropylcarbonyl)azetidin-3-yl]methyl}-5-{4-[1-(2-hydroxyethyl)-1H-indazol-5-yl]phenyl}-4,6-diazaspiro[2.4]hept-4-en-7-one], the IC50 with A2780 ovarian cells [1] was > 10000 nM; in the test with A2780 ovarian cells [2] it was 5890 nM; in test [3], 5250 nM. Also, in test [3], the inhibition at 10 µM was 61%.
For the molecule `Cc1cc(Cl)nc2cc(-c3ccc(C4=NC5(CC5)C(=O)N4CC4CN(C(=O)C5CC5)C4)cc3)ccc12` [compound 559, 5-[4-(2-Chloro-4-methylquinolin-7-yl)phenyl]-6-{[1-(cyclopropylcarbonyl)azetidin-3-yl]methyl}-4,6-diazaspiro[2.4]hept-4-en-7-one], the values for the IC50 (with A2780 ovarian cells [1]; in the test with A2780 ovarian cells [2]; in test [3]) were > 10000 nM, 9330 nM and 6030 nM, respectively. For the same molecule, the inhibition at 10 µM in test [3] turned out to be 59%.
Regarding `O=C(C1CC1)N1CC(CN2C(=O)C3(CC3)N=C2c2ccc(-c3cnc4c(F)cccc4c3)cc2)C1` [compound 560, 6-{[1-(Cyclopropylcarbonyl)azetidin-3-yl]methyl}-5-[4-(8-fluoroquinolin-3-yl)phenyl]-4,6-diazaspiro[2.4]hept-4-en-7-one], the IC50 with A2780 ovarian cells [1] was > 10000 nM; with A2780 ovarian cells [2], ~7590 nM; in test [3], 3720 nM. Further, the inhibition at 10 µM in test [3] turned out to be 68%.
Turning to `Cc1ccc2ccc(-c3ccc(C4=NC5(CC5)C(=O)N4CC4CN(C(=O)C5CC5)C4)cc3)c(F)c2n1` [compound 561, 6-{[1-(Cyclopropylcarbonyl)azetidin-3-yl]methyl}-5-[4-(8-fluoro-2-methylquinolin-7-yl)phenyl]-4,6-diazaspiro[2.4]hept-4-en-7-one], the IC50 was > 10000 nM in the test with A2780 ovarian cells [1], > 10000 nM in the test with A2780 ovarian cells [2] and ~7240 nM in test [3]. Besides, the inhibition at 10 µM in test [3] worked out at 56%.
As for `O=C(C1CC1)N1CC(CN2C(=O)C3(CC3)N=C2c2ccc(-c3ccc4c(Cl)ccnc4c3)cc2)C1` [compound 563, 5-[4-(4-Chloroquinolin-7-yl)phenyl]-6-{[1-(cyclopropylcarbonyl)azetidin-3-yl]methyl}-4,6-diazaspiro[2.4]hept-4-en-7-one], the IC50 is > 10000 nM in the test on A2780 ovarian cells [1], 3160 nM in the test on A2780 ovarian cells [2] and 631 nM in test [3]. Further, in test [3], the inhibition at 10 µM came out at 88%.
For the molecule `Cc1cc(-c2ccc3c(cnn3C)c2)ccc1C1=NC2(CC2)C(=O)N1CC1CN(C(=O)C2(N)CC2)C1` [compound 564, 6-({1-[(1-Aminocyclopropyl)carbonyl]azetidin-3-yl}methyl)-5-[2-methyl-4-(1-methyl-1H-indazol-5-yl)phenyl]-4,6-diazaspiro[2.4]hept-4-en-7-one], the IC50 in the test with A2780 ovarian cells [1] was > 10000 nM; in the test with A2780 ovarian cells [2] it was 525 nM; in test [3] it was 263 nM. The inhibition at 10 µM in test [3] turned out to be 97%.
Taken in the same sequence, the figures for `Cn1cc(CCO)c2cc(-c3ccc(C4=NC5(CC5)C(=O)N4CC4CN(C(=O)C5CC5)C4)c(F)c3)ccc21` [compound 568, 6-{[1-(Cyclopropylcarbonyl)azetidin-3-yl]methyl}-5-{2-fluoro-4-[3-(2-hydroxyethyl)-1-methyl-1H-indol-5-yl]phenyl}-4,6-diazaspiro[2.4]hept-4-en-7-one] were 2400 nM, 46.8 nM, 129 nM and 89%.
Turning to `Cc1cc2cc(-c3ccc(C4=NC5(CC5)C(=O)N4CC4CN(C(=O)C5CC5)C4)c(F)c3)ccc2n1C` [compound 569, 6-{[1-(Cyclopropylcarbonyl)azetidin-3-yl]methyl}-5-[4-(1,2-dimethyl-1H-indol-5-yl)-2-fluorophenyl]-4,6-diazaspiro[2.4]hept-4-en-7-one], the results for the IC50 (with A2780 ovarian cells [1]; with A2780 ovarian cells [2]; in test [3]) were 2190 nM, 204 nM and 209 nM, respectively. Also, the inhibition at 10 µM in test [3] came to 86%.
Take `Cc1cc(C)c2ccc(-c3ccc(C4=NC5(CC5)C(=O)N4CC4CN(C(=O)C5CC5)C4)cc3)cc2n1` [compound 570, 6-{[1-(Cyclopropylcarbonyl)azetidin-3-yl]methyl}-5-[4-(2,4-dimetrhylquinolin-7-yl)phenyl]-4,6-diazaspiro[2.4]hept-4-en-7-one]: the IC50 in the test with A2780 ovarian cells [1] was > 10000 nM; in the test on A2780 ovarian cells [2] it was ~5250 nM; in test [3] it was 4170 nM. For the same molecule, in test [3], the inhibition at 10 µM was found to be 65%.
For the molecule `Cc1cc(-c2cccc(NC(=O)C3CC3)c2)ccc1C1=NC2(CC2)C(=O)N1CC1CN(C(=O)C2CC2)C1` [compound 571, N-[4′-(6-{[1-(Cyclopropylcarbonyl)azetidin-3-yl}methyl]-7-oxo-4,6-diazaspiro[2.4]hept-4-en-5-yl)-3′-methylbiphenyl-3-yl]cyclopropanecarboxamide], the IC50 in the test on A2780 ovarian cells [1] is > 10000 nM; in the test with A2780 ovarian cells [2], 977 nM; in test [3] it was 1380 nM. In addition, the inhibition at 10 µM in test [3] turned out to be 79%.
For the molecule `Cn1ncc2cc(-c3ccc(C4=NC5(CC5)C(=O)N4CC4CN(C(=O)C5(O)CC5)C4)c(F)c3)ccc21` [compound 572, 5-[2-Fluoro-4-(1-methyl-1H-indazol-5-yl)phenyl]-6-({1-[(1-hydroxycyclopropyl)carbonyl]azetidin-3-yl}methyl)-4,6-diazaspiro[2.4]hept-4-en-7-one], the IC50 in the test on A2780 ovarian cells [1] is > 10000 nM; in the test on A2780 ovarian cells [2] it was 52.5 nM; in test [3] it was 135 nM. Further, the inhibition at 10 µM in test [3] is 87%.
Regarding `Cc1cn(C)c2ccc(-c3ccc(C4=NC5(CC5)C(=O)N4CC4CN(C(=O)C5CC5)C4)c(F)c3)cc12` [compound 573, 6-{[1-(Cyclopropylcarbonyl)azetidin-3-yl]methyl}-5-[4-(1,3-dimethyl-1H-indol-5-yl)-2-fluorophenyl]-4,6-diazaspiro[2.4]hept-4-en-7-one], the results for the IC50 (in the test with A2780 ovarian cells [1]; in the test on A2780 ovarian cells [2]; in test [3]) were 1380 nM, 53.7 nM and 166 nM, respectively. In addition, the inhibition at 10 µM in test [3] stood at 88%.
For `Cc1ccc2ccc(-c3ccc(C4=NC5(CC5)C(=O)N4CC4CN(C(=O)C5CC5)C4)c(F)c3)cc2n1` [compound 574, 6-{[1-(Cyclopropylcarbonyl)azetidin-3-yl]methyl}-5-[2-fluoro-4-(2-methylquinolin-7-yl)phenyl]-4,6-diazaspiro[2.4]hept-4-en-7-one], the IC50 is 5750 nM in the test with A2780 ovarian cells [1], 871 nM in the test with A2780 ovarian cells [2] and 813 nM in test [3]. Moreover, in test [3], the inhibition at 10 µM amounted to 82%.
Consider `Cc1ccc2c(-c3ccc(C4=NC5(CC5)C(=O)N4CC4CN(C(=O)C5CC5)C4)c(F)c3)cccc2n1` [compound 575, 6-{[1-(Cyclopropylcarbonyl)azetidin-3-yl]methyl}-5-[2-fluoro-4-(2-methylquinolin-5-yl)phenyl]-4,6-diazaspiro[2.4]hept-4-en-7-one], for which the IC50 with A2780 ovarian cells [1] was > 10000 nM; in the test on A2780 ovarian cells [2] it was ~7940 nM; in test [3] it was 8130 nM. Also, the inhibition at 10 µM in test [3] was 52%.
For `Cn1nccc1-c1ccc(-c2ccc(C3=NC4(CC4)C(=O)N3CC3CN(C(=O)C4(O)CC4)C3)c(F)c2)cc1` [compound 577, 5-[3-Fluoro-4′-(1-methyl-1H-pyrazol-5-yl)biphenyl-4-yl]-6-({1-[(1-hydroxycyclopropyl)carbonyl]azetidin-3-yl}methyl)-4,6-diazaspiro[2.4]hept-4-en-7-one], the IC50 in the test with A2780 ovarian cells [1] is > 10000 nM; in the test on A2780 ovarian cells [2], 2450 nM; in test [3] it was 2340 nM. The inhibition at 10 µM in test [3] is 67%.
Taken in the same sequence, the figures for `O=C(O)c1ccc2ccc(-c3ccc(C4=NC5(CC5)C(=O)N4CC4CN(C(=O)C5CC5)C4)cc3)cc2n1` [compound 583, 7-[4-(6-{[1-(Cyclopropylcarbonyl)azetidin-3-yl]methyl}-7-oxo-4,6-diazaspiro[2.4]hept-4-en-5-yl)phenyl]quinoline-2-carboxylic acid] were > 10000 nM, 2570 nM, 3980 nM and 74%.
